Assay results taken from ChEMBL document CHEMBL1152904, “Synthesis and characterization of a BODIPY-labeled derivative of Soraphen A that binds to acetyl-CoA carboxylase” (Bioorg Med Chem Lett, 2009).

Target: Acetyl-CoA carboxylase 2 (Homo sapiens, UniProt O00763)
Test: Binding affinity to human His-tagged acetyl-CoA-carboxylase biotin carboxylase domain
Conditions: read-out: Kd(app)

Acetyl-CoA carboxylase 2, sequence (O00763 whole entry, the tested form may be a part): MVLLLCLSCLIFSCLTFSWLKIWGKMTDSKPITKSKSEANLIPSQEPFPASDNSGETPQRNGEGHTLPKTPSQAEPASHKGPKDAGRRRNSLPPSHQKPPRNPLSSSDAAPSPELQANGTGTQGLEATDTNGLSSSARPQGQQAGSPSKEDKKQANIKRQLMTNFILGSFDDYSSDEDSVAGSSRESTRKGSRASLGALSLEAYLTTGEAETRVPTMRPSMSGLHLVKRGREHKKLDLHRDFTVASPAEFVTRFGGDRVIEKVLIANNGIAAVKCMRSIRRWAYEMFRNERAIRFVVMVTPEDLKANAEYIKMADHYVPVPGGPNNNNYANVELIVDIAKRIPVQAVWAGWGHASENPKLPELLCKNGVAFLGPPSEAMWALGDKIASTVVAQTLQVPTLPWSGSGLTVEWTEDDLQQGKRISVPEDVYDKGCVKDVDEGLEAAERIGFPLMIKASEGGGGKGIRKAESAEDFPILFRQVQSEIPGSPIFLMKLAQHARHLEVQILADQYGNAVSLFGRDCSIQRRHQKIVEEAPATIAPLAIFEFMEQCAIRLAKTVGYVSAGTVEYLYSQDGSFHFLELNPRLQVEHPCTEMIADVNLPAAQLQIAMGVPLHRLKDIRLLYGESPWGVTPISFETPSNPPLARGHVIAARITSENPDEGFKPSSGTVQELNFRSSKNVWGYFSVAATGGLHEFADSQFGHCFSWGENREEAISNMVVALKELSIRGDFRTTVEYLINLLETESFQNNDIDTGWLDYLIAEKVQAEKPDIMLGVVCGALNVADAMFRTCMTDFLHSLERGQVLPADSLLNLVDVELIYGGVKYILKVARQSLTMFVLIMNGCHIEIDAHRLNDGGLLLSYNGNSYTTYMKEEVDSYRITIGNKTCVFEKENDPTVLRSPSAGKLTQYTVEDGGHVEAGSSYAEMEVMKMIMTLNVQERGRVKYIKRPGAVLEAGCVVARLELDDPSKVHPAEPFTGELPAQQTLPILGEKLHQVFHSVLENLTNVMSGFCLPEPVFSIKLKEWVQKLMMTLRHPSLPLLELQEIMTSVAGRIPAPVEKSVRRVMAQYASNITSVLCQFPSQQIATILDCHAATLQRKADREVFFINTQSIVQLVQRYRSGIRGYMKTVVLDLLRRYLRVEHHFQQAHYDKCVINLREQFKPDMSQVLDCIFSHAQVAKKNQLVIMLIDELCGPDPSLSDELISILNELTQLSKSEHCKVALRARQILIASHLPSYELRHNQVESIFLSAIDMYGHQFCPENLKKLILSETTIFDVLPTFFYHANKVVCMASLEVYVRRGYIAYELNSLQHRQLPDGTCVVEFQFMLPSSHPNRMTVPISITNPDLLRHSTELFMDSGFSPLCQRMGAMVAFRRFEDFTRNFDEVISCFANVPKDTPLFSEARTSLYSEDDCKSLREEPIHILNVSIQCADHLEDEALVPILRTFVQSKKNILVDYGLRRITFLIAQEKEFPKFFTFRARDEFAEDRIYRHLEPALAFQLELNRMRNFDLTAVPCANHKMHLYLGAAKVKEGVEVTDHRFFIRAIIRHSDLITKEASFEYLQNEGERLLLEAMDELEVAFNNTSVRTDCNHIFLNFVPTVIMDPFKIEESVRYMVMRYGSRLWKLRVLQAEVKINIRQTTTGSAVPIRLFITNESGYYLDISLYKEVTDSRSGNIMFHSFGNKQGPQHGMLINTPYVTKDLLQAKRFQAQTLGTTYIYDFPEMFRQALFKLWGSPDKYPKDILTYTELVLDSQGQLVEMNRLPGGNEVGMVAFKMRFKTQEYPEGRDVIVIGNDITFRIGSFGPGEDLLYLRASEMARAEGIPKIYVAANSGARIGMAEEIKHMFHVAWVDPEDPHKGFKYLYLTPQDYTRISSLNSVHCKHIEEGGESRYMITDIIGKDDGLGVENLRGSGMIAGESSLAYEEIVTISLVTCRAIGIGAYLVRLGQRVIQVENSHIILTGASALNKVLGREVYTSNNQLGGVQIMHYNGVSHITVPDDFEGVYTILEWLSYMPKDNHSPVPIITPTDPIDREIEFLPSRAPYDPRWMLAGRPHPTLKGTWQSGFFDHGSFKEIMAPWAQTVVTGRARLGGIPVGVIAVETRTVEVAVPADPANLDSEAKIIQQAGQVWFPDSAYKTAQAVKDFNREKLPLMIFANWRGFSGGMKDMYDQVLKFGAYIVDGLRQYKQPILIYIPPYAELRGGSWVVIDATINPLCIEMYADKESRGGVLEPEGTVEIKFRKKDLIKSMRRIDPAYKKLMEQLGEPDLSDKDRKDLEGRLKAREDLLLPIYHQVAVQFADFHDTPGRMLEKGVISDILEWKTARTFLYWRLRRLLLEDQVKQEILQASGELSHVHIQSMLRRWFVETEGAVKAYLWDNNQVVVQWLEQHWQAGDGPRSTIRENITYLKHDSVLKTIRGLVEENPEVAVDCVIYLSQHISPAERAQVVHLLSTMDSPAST

Kd: 3 nM
SMILES: CO[C@H]1CCCC[C@@H](c2ccccc2)OC(=O)[C@@H](C)[C@@]2(O)O[C@H]([C@@H](C)[C@H](O)[C@H]2OC)[C@@H](C)/C=C/[C@H]1OC(=O)CCC1=[N+]2C(=Cc3c(C)cc(C)n3[B-]2(F)F)C=C1
